Laboratory results published in patent US9447033B2, “Potassium channel blockers” (Japan Tobacco Inc., priority 2008, dated 2016).

Legend:
[1] = target: T1, human Kv1.3 (Homo sapiens, UniProt P22001); assay: Kv1.3 Autopatch electrophysiology (whole cell); type: cell-based; conditions: compound at 1 μM; inhibition of charge movement relative to control; room temperature; read-out: hKv1.3 % Inh.
T1 construct: expressed in transfected cells
Procedure: Kv1.3 Autopatch Electrophysiology Method
Cells stably transfected with cDNA for human Kv1.3 (in pcDNA3.1) were grown in Ex-cell 302 serum-free medium for CHO cells, supplemented with 10 μl/ml [100×] glutamine, 500 μg/ml G418 ([…]), and 1% HT supplement (50×, hypoxanthine and thymidine). Compounds were tested on these cells using the AutoPatch technology in whole cell mode.
The external bathing solution contained (in mM): 150 NaCl, 10 KCl, MgCl2, 3 CaCl2, 10 HEPES, pH 7.4 with NaOH. Patch pipettes were filled with an electrode solution of composition (in mM): 100 K-Gluconate, 20 KCl, 1 MgCl2, CaCl2, 10 HEPES, 11 EGTA, 5 ATP-Na2, 2 Glutathione pH 7.2 with KOH.
Compounds were dissolved in DMSO (100%) and made up in the external bather at a concentration of 1 μM immediately prior to use. All experiments were conducted at room temperature.
A cell suspension (10 ml), with a density of 6×10^6 cells, was aliquoted into a 15 ml centrifuge tube and stored at 4° C. before use. Prior to use a tube was taken and centrifuged at 1000 rpm for 4 mins at room temperature. The supernatant was then discarded, leaving a cell pellet at the bottom of the tube. The pellet was then resuspended using 1 ml of cold (4° C.), filtered (0.22 μm), 0.05% BSA/bather solution (0.05 g BSA/100 ml bather). The bottom of the tube was manually agitated followed by gentle tituration. The cell suspension was then placed in the AutoPatch™ temperature controlled cell-hotel at 14° C. and regularly titurated.
A length of Teflon capillary tubing was dipped into the cell suspension solution, and a column of fluid was taken up by negative pressure. The column of fluid was in electrically connectivity with a Ag/AeCl reference electrode. Borosilicate glass patch pipettes (from 1.5 mm OD, thin-walled filamented, GC150-TF capillary glass, Harvard) were pulled using a DMZ pipette puller (Zeitz Instruments), and were back-filled using the internal pipette solution, being careful that no bubbles remained at the tip or in the body of the pipette. Patch pipettes typically had resistances of 2.5-3.5 MΩ. Once filled, the pipette tip and a proportion of the shaft (˜15 mm) were dipped into Sigmacote (Sigma). The recording pipettes were placed in a multiwell array and mounted on the AutoPatch™ machine. Automated patch-clamping and drug-application was initiated by the operator, but thereafter AutoPatch.exe continued the experiment providing that pre-set conditions and criteria were satisfied.
Whole cell patch-clamp recordings were made using the AutoPatch™ rig, which incorporated an EPC9 or EPC10 amplifier (HEKA, Germany) under control of Pulse software (v8.54 or v8.76, HEKA, Germany), a cell applicator, automated drug application system (DAS), valve controller (VFI) and a suction device all at room temperature. This equipment was completely under the control of AutoPatch.exe and operator intervention was only made when there was a requirement to refill the bather reservoirs or to prevent the loss of a cell due to a technical error. […]
Electrophysiology voltage-step protocols and analysis of data was performed as follows. […] Online analysis of the hKv1.3 current during the application of compounds was performed by the Pulse (v8.54 or v8.76, HEKA, Germany), Excel (Microsoft, USA) and AutoPatch™ software, with the total charge measured during the whole of voltage step. Inhibition of charge movement in the presence of drug was calculated relative to control.

[2] = target: hKv1.5 (Homo sapiens, UniProt P22460); assay: Kv1.5 Autopatch electrophysiology (whole cell); type: cell-based; conditions: hKv1.5 current, test concentration not given, read-out: hKv1.5 % Inh.
Procedure: Kv1.5 Autopatch Electraphysiogogy Method
The external bathing solution contained (in mM): 150 NaCl, 10 KCl, […], 3 MgCl2, 1 CaCl2, 10 HEPES, pH 7.4. Patch pipettes were filled with an electrode solution of composition (in mM): 160 KCl, 0.5 MgCl2, 10 HEPES, 1 EGTA, pH 7.4 with KOH.
Compounds were dissolved in DMSO (100%) and made up in the external bather at a concentration of 1 μM. All experiments were conducted at room temperature (22-24° C.).
A cell suspension (10 ml), with a density of 100,000 cells/ml, was aliquoted into a 15 ml centrifuge tube and transferred to an incubator (37° C., 5% CO2) for approximately one hour before use. Following 60 min incubation, a tube was taken and centrifuged at 1000 rpm for 4 mins at mom temperature. 9.5 ml supernatant was thence discarded, leaving a cell pellet a the bottom of the tube. The pellet was then resuspended using 100 μl of cold (4° C.), filtered (0.22 μm), 0.2% BSA/bather solution (0.02 g BSA/10 ml bather). The bottom of the tube was manually agitated gently until the solution became cloudy with cells. The 100 μl cell resuspension solution was then stored on the bench at 4° C. (using a Peltier-based temperature control device) until used.
A length of capillary glass (1B150F-4, WPI) was dipped into the cell suspension solution, such that ˜3 cm column of fluid was taken up by capillary action. A Ag/AgCl wire was dropped into the non-dipped end of the capillary also. The outside of the solution-filled end of the capillary was then dried and the capillary was loaded into the AutoPatch™.
Borosilicate glass patch pipettes (from 1.5 mm OD, thin-walled filamented, GC150-TF capillary glass, Harvard) were pulled using a DMZ pipette puller (Zeitz instruments), and were back-filled using the internal pipette solution, being careful that no bubbles remain at the tip or in the body of the pipette. Patch pipettes typically had resistances of 2.3-3.5 MΩ. Once filled, the pipette tip and a proportion of the shaft (˜15 mm) were dipped into Sigmacote (Sigma). The recording pipette was then loaded into the AutoPatch™. Automated patch-clamping was initiated by the operator, but thereafter AutoPatch.exe continued the experiment providing that pre-set conditions and criteria were satisfied.
Whole cell patch-clamp recordings were made using the AutoPatch™ rig, which incorporated an EPC9 amplifier (HEKA, Germany) under control of Pulse software (v8.54, HEKA, Germany), a motion controller with 2 translators (Newport, UK), valve controller (VFI) and a c-level suction device all at room temperature (22-24° C.). This equipment was completely under the control of AutoPatch.exe and operator intervention was only made when there was a requirement to refill the drug reservoirs or to prevent the loss of a cell due to a technical error. Cells with an Rseries greater than 18 MΩ were discounted from the experiment.
Qualification stages prior to perfusion and drug application ensured that the observed current met the criteria for the experiment. Only those cells with an 1K>500 pA were used for experiments. Cells were continuously perfused with external solution at a flow rate of 1.8-2 ml/minute. […]
Electrophysiology voltage-step protocols and analysis of data was performed as follows. […] Currents were analysed using Pulsefit software (v8.54, HEKA, Germany), with the total charge measured during the whole of the voltage step. […]

Sequence of hKv1.5 (P22460 whole entry): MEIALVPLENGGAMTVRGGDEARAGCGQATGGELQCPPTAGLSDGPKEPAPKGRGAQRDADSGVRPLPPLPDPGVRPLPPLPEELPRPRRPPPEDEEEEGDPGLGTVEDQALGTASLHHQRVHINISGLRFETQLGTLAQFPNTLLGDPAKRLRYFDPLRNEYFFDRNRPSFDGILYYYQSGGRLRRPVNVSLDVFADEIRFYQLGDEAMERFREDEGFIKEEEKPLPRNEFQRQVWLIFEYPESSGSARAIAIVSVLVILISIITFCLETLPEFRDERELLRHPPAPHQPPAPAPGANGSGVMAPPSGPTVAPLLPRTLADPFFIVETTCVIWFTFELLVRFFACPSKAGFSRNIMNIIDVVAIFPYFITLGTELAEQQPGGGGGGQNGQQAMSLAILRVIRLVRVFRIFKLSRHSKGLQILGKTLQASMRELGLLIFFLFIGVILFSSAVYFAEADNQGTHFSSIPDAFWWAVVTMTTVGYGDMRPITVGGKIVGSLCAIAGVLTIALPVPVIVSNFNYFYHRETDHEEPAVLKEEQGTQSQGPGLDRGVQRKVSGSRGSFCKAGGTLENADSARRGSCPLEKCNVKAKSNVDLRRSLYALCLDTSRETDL
T1 sequence (P22001 whole entry): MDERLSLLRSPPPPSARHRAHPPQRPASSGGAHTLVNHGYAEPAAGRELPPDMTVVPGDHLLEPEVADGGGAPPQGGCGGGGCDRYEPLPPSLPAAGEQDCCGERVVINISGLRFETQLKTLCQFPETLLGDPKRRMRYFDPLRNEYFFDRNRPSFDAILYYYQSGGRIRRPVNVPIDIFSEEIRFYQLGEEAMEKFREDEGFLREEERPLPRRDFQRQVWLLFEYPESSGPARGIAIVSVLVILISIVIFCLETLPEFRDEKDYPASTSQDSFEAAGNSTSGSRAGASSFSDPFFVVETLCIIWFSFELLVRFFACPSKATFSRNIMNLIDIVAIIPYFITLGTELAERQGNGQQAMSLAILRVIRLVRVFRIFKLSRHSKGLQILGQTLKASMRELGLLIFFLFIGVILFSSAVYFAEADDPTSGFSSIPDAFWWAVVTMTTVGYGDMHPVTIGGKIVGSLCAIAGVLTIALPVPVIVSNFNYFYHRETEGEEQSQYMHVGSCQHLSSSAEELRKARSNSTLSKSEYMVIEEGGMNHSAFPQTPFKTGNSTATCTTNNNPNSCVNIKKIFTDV

inhibition at 1 µM [1] | inhibition at 1 µM [2] | SMILES
92% | 52% | CC(C)NC(=O)c1cccc(N(Cc2ccccc2)S(=O)(=O)c2cccnc2)c1 [Example 3, 3-[Benzyl-(pyridine-3-sulfonyl)-amino]-N-isopropyl-benzamide]
45% | 18% | CC(=O)Nc1ccc(S(=O)(=O)N(Cc2ccccc2)c2cccc(C(=O)NC(C)C)c2)cc1 [Example 5, 3-[(4-Acetylamino-benzenesulfonyl)-benzyl-amino]-N-isopropyl-benzamide]

Second part, the compound before the results:

SMILES | inhibition at 1 µM [1] | inhibition at 1 µM [2]
Cn1ccc(S(=O)(=O)N(Cc2ccc(Cl)cc2)c2cccc(C(=O)NCCO)c2)n1 [Example 1, 3-[(4-Chloro-benzyl)-(1-methyl-1H-pyrazole-3-sulfonyl)-amino]-N-(2-hydroxy-ethyl)-benzamide] | 86% | 48%
O=C(Nc1ccc2cn[nH]c2c1)c1cccc(N(Cc2ccccc2)S(=O)(=O)c2ccccc2)c1 [Example 4, 3-(Benzenesulfonyl-benzyl-amino)-N-(1H-indazol-6-yl)-benzamide] | 88% | 99%
CC(C)NC(=O)c1cccc(N(Cc2ccc(Cl)cc2)S(=O)(=O)c2ccnn2C)c1 [Example 7, 3-[(4-Chloro-benzyl)-(2-methyl-2H-pyrazole-3-sulfonyl)-amino]-N-isopropyl-benzamide] | 57% | 54%
